Measured values as given in PubChem BioAssay AID179 (DTP/NCI, 2004).
Values joined by “and” are separate entries in the source; they are usually repeats but may differ in a detail not shown here. Equal values may be shown once. Active and inactive are the calls of the source.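 The calls were made as follows: active = compounds giving half or more protection of infected cells from virus-caused growth loss, again on retest; inactive = the rest.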

Test system: CEM cells HIV-1 protection, formazan growth assay
Test: NCI AIDS Antiviral Assay
Conditions: for IC50: measured here: growth of uninfected CEM cells
How it was run: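 Protection of CEM cells against HIV-1 measured as cell growth via soluble formazan read-out, with five concentrations tested on both infected and uninfected cells; failure to protect may reflect toxicity.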

SMILES | EC50 [µM] | IC50 | outcome
CC(C)(C)c1ccc(-n2c3nc(=O)n(-c4ccccc4C(F)(F)F)c(=O)c-3cc3ccccc32)cc1 | > 200 | 15.8 µM | –
COCC(/C=N/N=C(N)N)=N\N=C(N)N | > 32.4 | > 32.4 µM | –
COc1cc(OC)c2nc3ccccc3c(NCCC[N+](C)(C)[O-])c2c1[N+](=O)[O-] | > 200 | 132 µM | –
CCCCCCC(CCl)c1sc(-c2csc(CCNC(=O)OC(C)(C)C)n2)nc1C(=O)OC (configuration not stated) | > 200 | > 200 µM | –
N#C/C(=C(\c1ccccc1)c1ccccn1)c1ccccc1 | > 20 | 1.1 µM | –
COc1cc2c(c(OC)c1OC)-c1ccc(OC)c(=O)cc1C([N+](C)(C)C)CC2 (configuration not stated) | > 200 | 11 µM | –
O=C1c2c(ccc3c2CCC3)CC12Cc1ccccc1C2 | > 200 | > 200 µM | –
COc1cccc(/C=N/[N-]C(=O)c2ccncc2)c1[O-].[OH3+].[Zn+2] | > 2.95 | > 2.95 µM | –
CC(=O)C1C(=O)C(=O)N(c2ccc(Cl)cc2C)C1=O (configuration not stated) | > 93.3 | > 93.3 µM | –
CC(=S)N(c1ccccc1)c1ccccc1 | > 200 | 158 µM | –
CCC1(O)N=C(c2ccccc2)c2ccccc2-n2cccc21 (configuration not stated) | > 200 | 166 µM | –
CN(C)c1ccc(-c2nnc3c(c(=O)n(C)c(=O)n3C)[n+]2[O-])cc1 | > 200 | 19.1 µM | –
N#Cc1c(-c2ccccc2)nc(-c2ccccc2)sc1=S | > 100 | > 100 µM | –
O=C(O)CC(=O)Nc1ccccc1S | > 200 | > 200 µM | –
O=C1N=C(c2ccccc2)O/C1=C\c1ccccc1 | > 200 | > 200 µM | –
CCN(CCC#N)C(=O)Nc1ccccc1 | > 200 | > 200 µM | –
O=C1C(Cl)=C(c2ccc([N+](=O)[O-])cc2)C(=O)c2c(O)cccc21 | > 79.4 | 1.12 µM | –
O=C1CC23CC4CC(CC(C4)C2O1)C3 (configuration not stated) | > 200 | > 200 µM | –
c1ccc(-c2ccc(N=NN3CCCC3)cc2)cc1 | > 200 | 14.8 µM | –
C1=C[C@]2(CCC13OCCO3)COc1ccccc12 | > 200 | 18.6 µM | –
COc1ccc(C(c2c(O)c3ccccc3oc2=O)N2CCCC2)cc1 (configuration not stated) | > 200 | 123 µM | –
CC/C(Cl)=N\OC(=O)NCc1ccc(F)cc1 | > 20 | 4.47 µM | –
O=C(CC1(O)C(=O)Nc2ccc(Br)cc21)c1ccc2c(c1)OCO2 (configuration not stated) | > 200 | 178 µM | –

SMILES | EC50 [µM] | IC50 | outcome
NC(N)=NCCCC(NCc1c2ccccc2nc2ccccc12)C(=O)O (configuration not stated) | – | – | inactive
CSc1cc(Cl)c(C(=O)Nc2ccccc2)cc1S(=O)(=O)n1cc[nH]c1=O | > 200 | > 200 µM | –
O=C(O)C1SCCCS1 | > 1510 | > 1510 µM | –
c1ccc(NNCC[P+](c2ccccc2)(c2ccccc2)c2ccccc2)cc1 | > 200 | 2.88 µM | –
Cc1ccnc2sc3ccccc3c(=O)c12 | > 200 | 37.2 µM | –
O=C1C(c2ccc3ccccc3n2)=C(O)c2ccccc21 | – | – | inactive
COC(=O)c1c(C)cccc1C1CN=NC12Cc1ccccc1C2=O (configuration not stated) | 27.5 | 102 µM | –
CCCCCCCCCCCCOCC1(COCCCCCCCCCCCC)COC(c2ccc(N)cc2)OC1 | > 200 | > 200 µM | –
O=C1OC2(c3ccc(O)cc3Oc3cc(O)ccc32)c2c1c(-c1ccccc1)c(-c1ccccc1)c(-c1ccccc1)c2-c1ccccc1 | 10 | 16.6 µM | –
NNC(=Nc1ccccc1)SCc1ccccc1 | – | – | inactive
Cc1c(COC(=O)NC(C)C)c(COC(=O)NC(C)C)c2n1CSC2 | > 51.3 | 2.4 µM | –
CCOC(=O)c1sc2nc(-c3ccccc3)nn2c1CBr | > 200 | 1.07 µM | –
CC1NC(C)SC(C)S1 (configuration not stated) | > 200 | > 200 µM | –
O=C1C=CC(=C(c2ccc(O)cc2)c2c(Br)c(Br)c(Br)c(Br)c2S(=O)(=O)O)C=C1 | – | – | inactive
O=C(N/N=C(/c1nc2ccc([N+](=O)[O-])cc2[nH]c1=O)C(O)c1ccc([N+](=O)[O-])cc1)c1ccncc1 (configuration not stated) | > 138 | 129 µM | –
COc1ccc(-c2oc3cc(OC)c(OC)c(OC)c3c(=O)c2OC)cc1OC | > 200 | 3.8 µM | –
O=C(NCc1ccc(O)cc1O)c1ccccc1O | > 200 | 138 µM | –
O=C1CCC2(c3ccc(Cl)cc3)SCCN12 (configuration not stated) | > 200 | 145 µM | –
CCOC(=O)CCC[P+](c1ccccc1)(c1ccccc1)c1ccccc1 | > 200 | 22.4 µM and 7.76 µM | –
CC(C)n1c(=O)[nH]n(-c2ccccc2)c1=O | > 200 | > 200 µM | –
OCC1NCC(O)C(O)C1O (configuration not stated) | > 200 | > 200 µM | –
CC(=O)Nc1ccc(/C=C/C(=O)c2sc(-c3nc(C)c(C(=O)/C=C/c4ccc(NC(C)=O)cc4)s3)nc2C)cc1 | > 33.1 | > 33.1 µM | –
Clc1ccc(SCCSCCCCCCCCCCSCCSc2ccc(Cl)cc2)cc1 | > 9.55 | > 9.55 µM | –

SMILES | EC50 [µM] | IC50 | outcome
CC1=NN(c2ccccc2)C(=O)C1N=Nc1ccc(S(=O)(=O)Nc2nnc(C)s2)cc1 (configuration not stated) | – | – | inactive
NCCCCN(CCCN)C(=O)OCc1ccccc1 | > 200 | > 200 µM | –
Nc1ccc(/C=C/c2ccnc3ccccc23)cc1 | 19.5 | > 200 µM | –
Cc1cc(NS(=O)(=O)c2ccc(N=c3c4ccccc4n(Cc4ccccc4)c4ccccc34)cc2)no1 | – | – | inactive
N#CCCN(CCC#N)c1ccc(/C=C2\SC(=S)NC2=O)cc1Br | > 200 | > 200 µM | –
CCOP(=O)(OCC)/C(C#N)=C/c1cccn1C(C)C | 151 | > 200 µM | –
O=C1NN2CCN=C2c2cccnc21 | > 1320 | > 1320 µM | –
CCOP(=S)(OCC)Oc1ccc2c(C)c(Cl)c(=O)oc2c1 | > 37.2 | > 37.2 µM | –
O=C1/C(=C/c2cccc(Br)c2)Cc2ccccc21 | > 200 | 17 µM | –
CN1C(=O)N(c2ccccc2)C2(CCN(CC3COc4ccccc4O3)CC2)C1=O (configuration not stated) | > 200 | > 200 µM | –
Cc1cc2ccc([N+](=O)[O-])cn2c1 | > 200 | 115 µM | –
S=C1NC2(CCCCC2)N2C(=S)NC3(CCCCC3)N12 | – | – | inactive
C#CCOC(=O)c1ccccc1OC(C)=O.[C-]#[O+].[C-]#[O+].[C-]#[O+].[C-]#[O+].[C-]#[O+].[C-]#[O+].[Co].[Co] | > 200 | 9.33 µM | –
Cc1ccc(N=Nc2cc(=O)[nH]c(=O)[nH]2)cc1C | > 200 | 3.98 µM | –
CCC1(Br)C(=O)NC(=O)NC1=O | 42.7 | 115 µM | –
Cn1c(O)c(/C=N/c2ncccn2)c(=O)[nH]c1=O | > 200 | > 200 µM | –
O=S(=O)(/C=C/CS(=O)(=O)c1ccccc1)c1ccccc1 | – | – | inactive
Cc1ccc(S(=O)CC(CF)OCn2cc(C)c(=O)[nH]c2=O)cc1 (configuration not stated) | – | – | inactive
Cc1cn(C2CC(N=[N+]=[N-])C(C(=O)O)O2)c(=O)[nH]c1=O (configuration not stated) | 11.7 | > 200 µM | –
CC1(C)OC(=O)C(=Cc2ccc(C#N)cc2)C(=O)O1 | > 513 | 2.29 µM | –
N#CC1=C(N2CCCC2)NC(=O)CC1=O | > 200 | > 200 µM | –
Cc1ccc(-n2cc(-c3ccc(Cl)cc3)c3c(N/N=C4\SCC(=O)N4C)ncnc32)cc1 | > 200 | 8.32 µM | –
